From paper PMC7913927, “Leishmanicidal Activity of Betulin Derivatives in Leishmania amazonensis; Effect on Plasma and Mitochondrial Membrane Potential, and Macrophage Nitric Oxide and Superoxide Production” (Microorganisms, 2021)
Where two headings read alike, the source gives them in different places.

Assays:
[1] = tested on: L. (V.) braziliensis promastigotes, reference strain MHOM/BR/LTB300; details: cited from earlier work; for active concentration in L. (L.) braziliensis: reference strain MHOM/BR/LTB300
[2] = tested on: L. (L.) braziliensis MHOM/BR/LTB300; parameters: method as in PMID 25240731; details: cited from earlier work
J774.1 macrophages = experiment: Cytotoxicity (Alamar Blue) in macrophages; assay type: cell-based, murine; details: 72 h
Description: (§1) In flat-bottom 96-well culture plates, J774.1 macrophages were seeded at a cell density of 5 × 10^4 mL^−1 (10,000 macrophages/well) in 200 µL of RPMIc. After 24 h at 37 °C, 5% CO2, medium was replaced by 180 µL of RPMIc, without phenol red, and increasing concentrations of test compounds in 2-µL volumes. […] At least two independent experiments were performed in duplicate. Based on the inhibition of cell growth caused by the tested compounds, the percentage of growth inhibition compared to untreated cells was calculated. […] Selectivity indices (SI) were calculated, dividing the macrophage CC50 by the parasites GI50 (SI = CC50/GI50).

[3] = tested on: L. (L.) amazonensis LTB0016 promastigotes; experiment: Promastigote in vitro susceptibility (Alamar Blue/resazurin), reference strain; assay type: cell-based, Leishmania amazonensis; details: for growth inhibition / inhibition at 50 µM: LTB0016, 50 µM; for inhibition at 50 µM: read-out: growth inhibition
Description: The fluorometric method of Alamar Blue® (resazurin) was used. Promastigotes grown in biphasic agar-blood medium, at the exponential phase of growth, were seeded in flat-bottom 96-well culture plates, at a cell density of 1 × 10^6 parasites mL^−1 (200,000 parasites/well), in 180 µL of RPMIc without phenol red. Subsequently, either a sole concentration (50 µM), or increasing concentrations of compounds or drugs were applied, according to each treatment group, in volumes of 2 µL. Plates were kept at 26 °C, in a humid chamber, for 72 h. […] Live parasites are metabolically active and capable of reducing non-fluorescent resazurin (blue) to fluorescent resorufin (red). Fluorescence intensity is directly proportional to the number of viable cells. […] At least two independent experiments were performed in duplicate. The effect of trivalent antimonial [SbIII, potassium antimonyl tartrate trihydrate, Sigma-Aldrich, (St. Louis, MO, USA)] was included as positive control of the assay.

[4] = tested on: L. (L.) amazonensis VE2000MM promastigotes; experiment: Promastigote in vitro susceptibility (Alamar Blue/resazurin), patient isolate VE2000MM; assay type: cell-based, Leishmania amazonensis
Description: (§2) The fluorometric method of Alamar Blue® (resazurin) was used. Promastigotes grown in biphasic agar-blood medium, at the exponential phase of growth, were seeded in flat-bottom 96-well culture plates, at a cell density of 1 × 10^6 parasites mL^−1 (200,000 parasites/well), in 180 µL of RPMIc without phenol red. Subsequently, either a sole concentration (50 µM), or increasing concentrations of compounds or drugs were applied, according to each treatment group, in volumes of 2 µL. Plates were kept at 26 °C, in a humid chamber, for 72 h. Resazurin was then added (20 µL of 10% v/v), to reach a final concentration of 250 µM and plates were incubated for an additional 4 h. Live parasites are metabolically active and capable of reducing non-fluorescent resazurin (blue) to fluorescent resorufin (red). Fluorescence intensity is directly proportional to the number of viable cells. The fluorometric reading was carried out using the appropriate wavelengths (ex: 540 nm/em: 580 nm) in a spectrofluorometer Victor^2 Wallac (Perkin Elmer, Turku, Finland). At least two independent experiments were performed in duplicate. The effect of trivalent antimonial [SbIII, potassium antimonyl tartrate trihydrate, Sigma-Aldrich, (St. Louis, MO, USA)] was included as positive control of the assay.

[5] = tested on: L. (L.) amazonensis VE98MR promastigotes; experiment: Promastigote in vitro susceptibility (Alamar Blue/resazurin), patient isolate VE98MR; assay type: cell-based, Leishmania amazonensis
Description: as §2

[6] = tested on: L. (L.) amazonensis LTB0016, VE98MR and VE2000MM promastigotes; experiment: Plasma membrane potential (ΔΨp), bisoxonol fluorescence; assay type: cell-based, Leishmania amazonensis; details: VE2000MM promastigotes; valinomycin 1 µM
Description: To evaluate the plasma membrane potential (ΔΨp), the fluorescent compound, bisoxonol, bis[1,3-diethylthiobarbituric acid] trimethine oxonol, was used, as well as a method optimized by Padrón-Nieves et al.. Initially, calibration curves for each strain, using increasing concentrations of KCl (0.5 to 75 mM), were performed in the late log growth phase Leishmania promastigotes in the presence of the potassium ionophore valinomycin. By this procedure, fluorescence values could be transformed into millivolts (mV), applying the Nernst equation, ΔΨp = −59.4 log(120/[KCl]). […] After 10 min of incubation in the dark, fluorescence was measured in a Victor^2 Wallac spectrofluorometer (Perkin Elmer, Turku, Finland), using the appropriate wavelengths (ex: 540 nm/em: 580 nm). […] Once the corresponding calibration curve for each strain was obtained, the effect of compounds on the ΔΨp was evaluated. […] After 10 min of incubation in the dark, fluorescence was measured, using the appropriate wavelengths (ex: 540 nm/em: 580 nm). […] To transform the fluorescence values in millivolts (mV), calibration curves were prepared using increasing concentrations of KCl (0.5, 1.15, 2.5, 5, 10, 20, 40, and 75 mM). […]

[7] = Cytotoxicity (Alamar Blue) in macrophages; assay type: cell-based, murine; details: mouse, J774.1 macrophages
Description: as §1

[8] = LTB0016 promastigotes, 72 h, read-out: Promastigote (GI50) mean
[9] = Leishmania amazonensis, LTB0016 promastigotes, 72 h, read-out: Promastigote (GI50) mean
[10] = J774.1 CC50 / LTB0016 promastigote GI50

In the case of “3,28-diformylbetulin triazolodione [Compound 26]”, the GI50 [1] is listed as under 1 µM, the “active concentration in L. (L.) braziliensis” value (shortened to “active concentration”) [1] is listed as “less than 10 µM” and the “inhibition of parasite migration” value [2] is listed as “inhibited parasite migration at nano and picomolar concentrations”. For the same compound, the CC50 (J774.1 macrophages) was 21.9 µM, the “SI CC50/GI50” value [3] was 5.68 and the growth inhibition [3] was “at least 75%”. For the same compound, the GI50 [3, 8] was 3.85 µM.
O=NO [NaNO2, sodium nitrite] gave a GI50 ([3]; data not detailed in the manuscript, parasite stage not stated, read-out: GI50 against NaNO2, LTB0016) of 0.91 µM, a GI50 ([4]; data not detailed in the manuscript, parasite stage not stated, read-out: GI50 against NaNO2, VE2000MM) of 4.79 µM and a GI50 ([5]; data not detailed in the manuscript, parasite stage not stated, read-out: GI50 against NaNO2, VE98MR) of 3.28 µM.
For CC(C)[C@@H]1NC(=O)[C@H](C)OC(=O)[C@@H](C(C)C)NC(=O)[C@@H](C(C)C)OC(=O)[C@H](C(C)C)NC(=O)[C@H](C)OC(=O)[C@@H](C(C)C)NC(=O)[C@@H](C(C)C)OC(=O)[C@H](C(C)C)NC(=O)[C@H](C)OC(=O)[C@@H](C(C)C)NC(=O)[C@@H](C(C)C)OC1=O [valinomycin, reference compound], the “Effect on plasma membrane potential (ΔΨp), VE2000MM” value [6] was “not sensitive”.
In the case of C=C(C)[C@@H]1CC[C@]2(C(=O)O)CC[C@]3(C)[C@H](CC[C@@H]4[C@@]5(C)CCC(=O)C(C)(C)[C@@H]5CC[C@]43C)[C@@H]12 [Compound 14], the “active concentration” value [1] is given as “less than 10 µM” and the growth inhibition [3] is given as “did not show enough anti-leishmanial activity”.
CCCCCCCCCCCCCCCCOP(=O)([O-])OCC[N+](C)(C)C [MLF, miltefosine, reference compound] gave a GI50 [3, 9] of 4.17 µM and a GI50 ([4]; Leishmania amazonensis, read-out: GI50 promastigotes VE2000MM) of 5.13 µM.
Compound N=C(N)c1ccc(OCCCCCOc2ccc(C(=N)N)cc2)cc1 [PNT, reference compound] has a GI50 [3, 8] of 0.93 µM.
With “potassium antimonyl tartrate trihydrate [SbIII]” the GI50 [3, 8] was 5.51 µM, the GI50 ([4]; promastigotes, read-out: GI50 promastigotes VE2000MM) was 13.6 µM and the GI50 ([5]; promastigotes, read-out: GI50 promastigotes VE98MR) was 9.08 µM.
For C=C(C)[C@@H]1CC[C@]2(CO)CC[C@]3(C)[C@H](CC[C@@H]4[C@@]5(C)CC[C@H](O)C(C)(C)[C@@H]5CC[C@]43C)[C@@H]12 [Compound 1, betulin], the CC50 at 72 h [7] was 25.1 µM, the “SI CC50/GI50” value [3, 10] was 1.30 and the inhibition at 50 µM ([3]; Leishmania amazonensis) was at least 75%. It also gave a GI50 [3, 9] of 19.3 µM.
With C=C(C)[C@@H]1CC[C@]2(C(=O)O)CC[C@]3(C)[C@H](CC[C@@H]4[C@@]5(C)CC[C@H](O)C(C)(C)[C@@H]5CC[C@]43C)[C@@H]12 [Compound 13] the growth inhibition [3] was “did not show enough anti-leishmanial activity”.
For C=C(C)[C@@H]1CC[C@]2(C(=O)O)CC[C@]3(C)[C@H](CC[C@@H]4[C@@]5(C)CC[C@H](O)C(C)(C)[C@@H]5CC[C@]43C)[C@@H]12 [Compound 11, betulinic acid], the inhibition at 50 µM ([3]; Leishmania amazonensis) was 44%.
Compound C=C(C)[C@@H]1CC[C@]2(C=O)CC[C@]3(C)[C@H](CC[C@@H]4[C@@]5(C)CC[C@H](O)C(C)(C)[C@@H]5CC[C@]43C)[C@@H]12 [Compound 12, betulinic aldehyde] has a growth inhibition [3] of 67%.
[K+].[K+].[O]=[Cr](=[O])([O-])[O][Cr](=[O])(=[O])[O-] [Compound K2Cr2O7, K2Cr2O7] showed a GI50 ([3]; data not detailed in the manuscript, parasite stage not stated, read-out: GI50 against K2Cr2O7, LTB0016) of 1060 µM, a GI50 ([4]; data not detailed in the manuscript, parasite stage not stated, read-out: GI50 against K2Cr2O7, VE2000MM) of over 2500 µM and a GI50 ([5]; data not detailed in the manuscript, parasite stage not stated, read-out: GI50 against K2Cr2O7, VE98MR) of over 2500 µM.
For C=C(C)C1CCC2(C=NO)CCC3(C)C(CCC4C5(C)CCC(O)C(C)(C)C5CCC43C)C12 (stereo not shown) [Compound 17], the “active concentration” value [1] is listed as “less than 10 µM”, the CC50 (J774.1 macrophages) is listed as 19.3 µM and the “SI CC50/GI50” value [3, 10] is listed as 14.23. For the same compound, the growth inhibition [3] was “at least 75%” and the GI50 [3, 8] was 1.35 µM.
